Test results published in patent US20220202818A1, “COMBINATION WITH CHECKPOINT INHIBITORS TO TREAT CANCER” (The Regents of the University of Michigan, priority 2019, published 2022).

What was measured:
KPC pancreatic tumors = assay: In vivo efficacy of MOL-211 alone and with PD-1 antibody in mice bearing KPC pancreatic tumors
Procedure: In vivo studies were conducted to evaluate the efficacy of MOL-211 alone and in combination with PD-1 antibody in mice bearing KPC pancreatic tumors (FIG. 1A-FIG. 1E). Mice were treated daily with MOL-211 (50 mg/kg) administered by oral gavage; anti-PD-1 antibody was administered twice a week via IP injection. Mice were analyzed subsequent to tumor implantation for over 90 days using a vehicle control; MOL-211 at 50 mg/kg; anti-PD-1 antibody at 10 mg/kg; and a combination of MOL-211 and anti-PD-1.
A partial responder (PR) is defined as a tumor that regressed to 50% of the baseline tumor volume. A complete responder (CR) is defined as a tumor below the limits of palpation (40 mg). The ΔT/ΔC ratio is the ratio of tumor volume change (treated/control) from first day of treatment to last day of treatment. Median ILS represents median increase in lifespan.

[1] = system: SCC7 head and neck tumors; assay: In vivo study in C3H mice bearing SCC7 head and neck tumors
Procedure: (§1) Female 6- to 7-week old C3H mice or BALB/c mice were implanted subcutaneously with 1×10^6 cultured SCC7 cells or CT-26 (murine colorectal carcinoma) cells into the region of the right axilla. Female 6- to 7-week old BALB/c mice were implanted with 2×10^6 cultured EMT-6 (murine mammary carcinoma) cells subcutaneously into the mammary fat pad. Mice were randomized into treatment groups and treatments initiated when tumors reached 60 to 100 mg. MOL-211 was administered daily by oral gavage at a dose of 50 mg/kg for the duration of the study and was prepared as a 5 mg/mL solution in 1:2 PG:1% Tween80/Na3PO4, based upon individual animal body weight (0.2 mL/20 g). PD-1 antibody was purchased from BioXcell (Lebanon, N.H.) and administered intraperitoneally (IP) at a dose of 10 mg/kg every third day. Subcutaneous tumor volume and body weights were measured three times a week. Tumor volumes were calculated by measuring two perpendicular diameters with calipers and using the formula: tumor volume=(length×width^2)/2. Individual animals were dosed until progression, defined as the time at which tumor burden reached 1000 mg. […] Animal body weight was monitored three times weekly (FIG. 4D, FIG. 5D, FIG. 6C).

[2] = system: CT-26 (murine colorectal carcinoma) tumors; assay: In vivo study in BALB/c mice bearing CT-26 (murine colorectal carcinoma) tumors; conditions: FIG. 5A
Procedure: as §1

[3] = system: EMT-6 (murine mammary carcinoma) tumors; assay: In vivo study in female BALB/c mice bearing EMT-6 (murine mammary carcinoma) tumors; conditions: EMT-6 tumor-bearing mice; FIG. 6B
Procedure: as §1

PD-L1 = assay: Western blot of PD-L1 protein in KPC-2 cells treated in vitro; type: cell-based; conditions: KPC-2 cells in culture; 10 micromolar; 24 and 48 hours; compared to DMSO
Procedure: KPC-2 cells were also grown in culture and treated for either 24 or 48 hours with DMSO or MOL-211 at a final concentration of 10 micromolar. Cells were harvested and manually homogenized in lysis buffer [25 mmol/L Tris-HCl (pH7.6), 150 mmol/L NaCl, 1% Nonidet P-40, 10% glycerol, 1 mmol/L dithiothreitol, and protease and phosphatase inhibitors], rocked for 30 minutes at 4° C., and centrifuged at 14,000 rpm for 20 min at 4° C. Protein concentration was determined by BioRad Protein Assays and lysates were subsequently subjected to SDS gel electrophoresis. Proteins were transferred to polyvinylidene fluoride membranes and probed with a primary antibody recognizing PD-L1 (Abcam, Cambridge, UK) and beta-actin. After incubation with anti-rabbit HRP-linked secondary antibody (Jackson ImmunoResearch Laboratories, West Grove, Pa.), proteins were detected using chemiluminescence (GE Healthcare, Chicago, Ill.).

## CS(=O)(=O)Nc1cc(-c2ccc3ncnc(Nc4ccc(F)c(Cl)c4)c3c2)cnc1Cl [MOL-211, N-(2-chloro-5-(4-((3-chloro-4-fluorophenyl)amino)quinazolin-6-yl)pyridin-3-yl)methanesulfonamide]
KPC pancreatic tumors
  Median ILS (median increase in lifespan): 82%
KPC pancreatic tumors; ratio of tumor volume change (treated/control) from first to last day of treatment, MOL-211 50 mg/kg daily oral gavage, PD-1 antibody 10 mg/kg/kg IP
  ΔT/ΔC (Day 19): 21%
KPC pancreatic tumors; tumor below the limits of palpation (40 mg)
  CRs (complete responders): 0%
KPC pancreatic tumors; tumor regressed to 50% of baseline tumor volume
  PRs (partial responders): 0
[1]; C3H mice bearing SCC7 tumors, MOL-211 50 mg/kg, PD-1 antibody 10 mg/kg, FIG. 4A
  calculated increase in lifespan (ILS): 206%
[1]; mice bearing SCC7 tumors, compared with PD-1 antibody monotherapy, FIG. 4B
  reduction in mean tumor volumes: superior to PD-1 antibody monotherapy
[2]; BALB/c mice bearing CT-26 tumors, MOL-211 50 mg/kg, PD-1 antibody 10 mg/kg
  calculated increase in lifespan (ILS): 22%
[2]; mice bearing CT-26 tumors
  increase in survival: Neither single agent nor combination treatment with MOL-211 and PD-1 antibody resulted in a therapeutically meaningful increase in survival
[3]
  reduction in tumor volume compared to vehicle control: did not result in a statistically significant reduction in tumor volume
PD-L1
  PD-L1 protein levels (western blot): reduced PD-L1 protein levels
